Reference: paper PMC6017062, “Probing the Inhibitor versus Chaperone Properties of sp^2-Iminosugars towards Human β-Glucocerebrosidase: A Picomolar Chaperone for Gaucher Disease” (Molecules : A Journal of Synthetic Chemistry and Natural …, 2018)

How the values were obtained:
Assay type in all cases: biochemical
Conditions in all cases: mean ± SD, three determinations; competitive; n.i. = no inhibition detected at 1 mM
[1] = biological target: T1, amyloglucosidase (α-Glcase3) (Aspergillus niger, UniProt P69328); assay: Commercial glycosidase inhibition: amyloglucosidase (α-Glcase3)
T1 construct: purchased
T1 sequence (P69328 25-640): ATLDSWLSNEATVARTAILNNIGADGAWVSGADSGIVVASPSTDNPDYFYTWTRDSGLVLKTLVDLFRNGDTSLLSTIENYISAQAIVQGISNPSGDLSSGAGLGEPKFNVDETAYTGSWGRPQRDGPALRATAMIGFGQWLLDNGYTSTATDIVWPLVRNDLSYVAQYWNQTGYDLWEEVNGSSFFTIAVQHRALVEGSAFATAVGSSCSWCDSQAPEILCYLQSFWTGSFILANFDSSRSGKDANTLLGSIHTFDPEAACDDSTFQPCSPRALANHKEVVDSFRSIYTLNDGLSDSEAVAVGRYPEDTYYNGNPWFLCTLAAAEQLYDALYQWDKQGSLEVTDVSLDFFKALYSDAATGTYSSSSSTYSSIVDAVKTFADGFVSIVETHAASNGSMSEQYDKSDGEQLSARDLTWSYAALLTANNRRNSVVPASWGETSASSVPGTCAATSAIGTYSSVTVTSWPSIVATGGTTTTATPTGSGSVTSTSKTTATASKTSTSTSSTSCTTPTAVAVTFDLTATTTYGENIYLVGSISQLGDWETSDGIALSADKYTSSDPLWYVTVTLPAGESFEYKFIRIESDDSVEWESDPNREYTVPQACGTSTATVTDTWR
Excerpt: (§1) We first evaluated the inhibitory properties of the new nonreducing mono- and bicyclic sp^2-iminosugars 4–15 against a panel of commercial glycosidases that included the α-glucosidases maltase (yeast maltase; α-Glcase1) and isomaltase (α-Glcase2) from Saccharomyces cerevisiae and amyloglucosidase (α-Glcase3) from Aspergillus niger, the β-glucosidases from almonds (β-Glcase1) and bovine liver (β-Glcase2), the α-galactosidase from green coffee beans (α-Galase), the β-galactosidase from Escherichia coli (β-Galase), and the α-mannosidase from Jack bean (α-Manase).
(§2) Inhibition constant (Ki) values were determined by spectrophotometrically measuring the residual hydrolytic activities of the glycosidases against the respective o- (for β-galactosidase from E. coli) or p-nitrophenyl α- or β-D-glycopyranoside (for other glycosidases) in the presence of the iminosugars. Each assay was performed in phosphate buffer or phosphate-citrate buffer (for α- or β-mannosidase and amyloglucosidase) at the optimal pH for the enzymes. The reactions were initiated by addition of the enzyme to a solution of the substrate in the absence or presence of various inhibitor concentrations. The mixture was incubated for 10–30 min at 37 °C or 55 °C (for amyloglucosidase) and the reaction was quenched by addition of 1 M Na2CO3. Reaction times were appropriate to obtain 10–20% conversion of the substrate in order to achieve linear rates. The absorbance of the resulting mixture was determined at 405 nm. Approximate value of Ki was determined from the slope of Dixon plots using a fixed concentration of substrate (around the Km value for the different glycosidases) and various concentrations of inhibitor. Full Ki determinations and enzyme inhibition mode were determined from the slope of Lineweaver–Burk plots and double reciprocal analysis.

[2] = biological target: β-glucosidase from almonds (β-Glcase1); assay: Commercial glycosidase inhibition: β-glucosidase from almonds (β-Glcase1)
Excerpt: as §1, §2

[3] = biological target: T2, α-glucosidase maltase (yeast maltase; α-Glcase1) (Saccharomyces cerevisiae, UniProt P53341); assay: Commercial glycosidase inhibition: maltase (yeast maltase; α-Glcase1)
T2 construct: purchased
T2 sequence (P53341 whole entry): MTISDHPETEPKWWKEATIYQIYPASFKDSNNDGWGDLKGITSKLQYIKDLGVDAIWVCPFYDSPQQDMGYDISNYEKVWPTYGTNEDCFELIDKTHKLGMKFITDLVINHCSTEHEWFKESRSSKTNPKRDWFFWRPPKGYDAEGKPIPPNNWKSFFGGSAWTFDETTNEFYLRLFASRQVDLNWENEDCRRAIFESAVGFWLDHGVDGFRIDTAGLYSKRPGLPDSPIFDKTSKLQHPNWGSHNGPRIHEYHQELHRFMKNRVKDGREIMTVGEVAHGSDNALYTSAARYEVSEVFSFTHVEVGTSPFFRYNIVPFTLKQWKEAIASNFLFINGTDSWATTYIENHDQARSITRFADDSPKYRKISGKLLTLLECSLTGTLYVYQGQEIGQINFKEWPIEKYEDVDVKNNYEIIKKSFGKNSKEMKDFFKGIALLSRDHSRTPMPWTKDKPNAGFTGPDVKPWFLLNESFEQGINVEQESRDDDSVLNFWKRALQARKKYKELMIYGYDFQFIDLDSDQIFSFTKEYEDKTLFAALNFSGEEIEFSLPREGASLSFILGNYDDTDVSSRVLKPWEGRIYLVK
Excerpt: as §1, §2

**Q.** For CCCCCCCCN=C1SCC2C(O)C(O)C(O)CN12 (stereo not drawn) [Compound 4, 1-Deoxy-6-thio-5-N,6-S-(N′-octyliminomethylidene)nojirimycin], which “Ki α-Glcase3” value [1] is on record?
**A.** Its value is “n.i”.

**Q.** What about the Ki [2] of the same compound?
**A.** Its Ki is 45 nM.

**Q.** And the “Ki α-Glcase1” value [3]?
**A.** The value was “n.i. ^1”.
